Reference: patent US20220133694A1, “PHARMACEUTICAL USE” (Novartis AG, priority 2015, published 2022)

System: heart failure patients (NYHA class II-IV) with reduced ejection fraction
Conditions: randomized patients
Procedure: Patients enrolled were stratified based on the pre-study level of RAAS inhibition (high/low).
Patients were stratified based on the level of RAAS inhibition as follows: • High RAAS stratum: Patients receiving >160 mg of valsartan or >10 mg total daily dose of enalapril, or equivalent doses of other ARBs/ACEls, respectively, at screening • Low RAAS stratum: Patients receiving ≤160 mg of valsartan or ≤10 mg total daily dose of enalapril, or equivalent doses of other ARBs/ACEls, respectively, at screening. This stratum also included patients who were not on an ACEI or an ARB 4 weeks prior to screening (i.e., ACEI/ARB-naive patients)
Patients who met all the entry criteria and completed the ACEI-free washout period (if required) attended Visit 2 within approximately one week after Visit 1. […] Eligible hospitalized patients also took the study medication while they were still in the hospital and before they were discharged. Patients took the study medication in addition to their background HF therapy, except for ACEIs and ARBs, which were replaced by the study medication.

## trisodium [3-((1S,3R)-1-biphenyl-4-ylmethyl-3-ethoxycarbonyl-1-butylcarbamoyl) propionate-(S)-3′-methyl-2′-(pentanoyl{2″-(tetrazol-5-ylate)biphenyl-4′-ylmethyl}amino)butyrate]hemipentahydrate [LCZ696]
  most common reasons for dose adjustment/interruption or permanent discontinuation (AEs): hypotension, renal dysfunction or hyperkalemia
